Several values for one entry are separate records, joined by “and”; a condition that tells them apart may be missing. Equal values may be shown once. Read-outs that look alike come from different tables or passages of the source.
Tests used:
Format in all cases: cell-based
[1] = tested on: EOC 13.31 microglia cells; test: Inhibition of NO release from microglia following 24 hours pretreatment (Example 10); details: for inhibition at 50 µM: Microglia
Description: This experiment was designed to determine if pretreatment for 24 hours with bis- and tris-dihydroxyaryl compounds changes NO inhibition previously observed with concurrent exposure of bis- and tris-dihydroxyaryl compounds. […] This study seeks to determine if pretreatment with bis- and tris-dihydroxyaryl compounds increases NO release inhibition. EOC 13.31 microglia cells were plated at 1×10^6 cells/ml in 96 well plates. After 48 hours, confluent cells were exposed to 50 μM compound (stock 10 mM in DMSO) prepared in fresh cell culture media. After 24 hours, 10 μg/ml LPS and 10 ng/ml IFNγ was added to wells directly without a media change. Cells were incubated for a further 48 hours and nitric oxide release was measured using the Griess Reaction.

[2] = tested on: microglia; test: Ranking of NO release inhibition (Example 12); details: Microglia, ranking table
Description: The bis- and tris-dihydroxyaryl compounds were ranked in order of effectiveness for the inhibition of NO release as set out in Table 8.

[3] = tested on: EOC 13.31 microglial cells; test: NO release inhibition screen in LPS/IFNγ stimulated microglia, Griess reaction at 48 hours (Example 7); details: 50 uM + 10 μg/ml LPS/10 ng/ml IFNγ, 48 hours; for % inhibition: 50 µM; for inhibition at 50 µM: Microglia, 48 h
Description: In this experiment, additional bis- and tris-dihydroxyaryl compounds were screened for their ability to inhibit nitric oxide release from microglial cells. Microglial cells stimulated with LPS/IFNγ release nitric oxide. […] This is a continuation of screening experiments. EOC 13.31 microglial cells were plated into 96 well plates. At 24 hours and at confluency, cells were treated with 10 μg/ml LPS/10 ng/ml IFNγ+50 uM bis- and tris-dihydroxyaryl compounds.

[4] = tested on: TNF-α release from microglia; test: TNF-α release from LPS/IFNγ stimulated microglia, TNF-α ELISA (Example 11); details: for % inhibition: individual replicates; for TNF-α ELISA raw reading (not NO; the printed μM unit is unsupported): 3 replicates
Description: Also, bis- and tris-dihydroxyaryl compound's ability to inhibit NO release strongly supports their interference with the inflammatory cascade and utlimately inhibition of inflammation. Microglia cells were plated at 1×10^5 cells/ml into 96 well plates. At day three, they were treated with 50 μM bis- and tris-dihydroxyaryl compound for 1 hour and then exposed to 10 μg/ml LPS+10 ng/ml IFNγ for 24 hours. 10 μl of media was removed and stored at −80° until TNF-α ELISA assays were performed. Samples were diluted 1:50 before running the TNF-α ELISA (kit commercially available from Sigma).

[5] = 50 uM pretreatment 24 hours, then LPS/IFNγ 48 hours, single replicates
[6] = single replicates, read-out: % inhibition
[7] = 50 uM compound, TNF-α release, 10 ug LPS and 10 ng IFNγ, 24 hours, 50 µM
[8] = 50 uM compound, 10 ug LPS and 10 ng IFNγ, 24 hours
[9] = 50 uM compound, TNF-α release, 10 ug LPS and 10 ng IFNγ, 24 hours

Row | Compound | inhibition at 50 µM [2] [%] | μM NO release Avg [3] [µM] | % inhibition ([3]; single replicates) | inhibition at 50 µM ([3]; read-out: Avg. % Inhibition) [%] | % inhibition [4, 7] | TNF-α ELISA raw reading (not NO; the printed μM unit is unsupported) [4, 8] | Avg % Inhibition [4, 9] [%] | also measured
1 | O=C(NCc1ccc(O)c(O)c1)Nc1ccc(O)c(O)c1 [Compound 77, 1-(3,4-dihydroxyphenyl)-3-(3,4-dihydroxybenzyl)urea] | 12 | 24.398 | 9.89% | 12.1 | – | – | – | % inhibition [1, 5]: 99.39%; inhibition at 50 µM ([1]; 50 uM pretreatment 24 hours, then LPS/IFNγ 48 hours, read-out: Avg % Inhibition): 96.8%; inhibition at 50 µM ([1]; 50 uM pretreatment 24 hours, then LPS/IFNγ 48 hours, single replicates, read-out: % inhibition): 91.8%; inhibition at 50 µM ([1]; 50 μM pretreatment, read-out: inhibition of NO release following pretreatment): > 75%; inhibition at 50 µM [3, 6]: 14.2%
2 | O=C(Nc1ccc(O)c(O)c1)c1ccc(O)c(O)c1 [Compound 51-4] | – | – | – | – | −20.13% and −17.25% and −11.34% | 0.907 µM and 0.870 µM and 0.925 µM | – | Avg % Inhibition [4, 7]: −16.24%
3 | O=C(Nc1ccc(O)c(O)c1)Nc1ccc(O)c(O)c1 [Compound 76-2] | – | – | – | – | −8.66% and −11.12% and −9.64% | 0.849 µM and 0.840 µM and 0.834 µM | −9.81 | –
4 | CN1C2CCC1C(Cc1ccc(O)c(O)c1)C(=O)C2Cc1ccc(O)c(O)c1 (centres unmarked) [Compound 19-2] | – | – | – | – | 7.78% and 8.44% and 12.05% | 0.730 µM and 0.708 µM and 0.734 µM | 9.42 | Avg % Inhibition ([1]; 50 uM pretreatment 24 hours, then LPS/IFNγ 48 hours): 82.93%; % inhibition [1, 5]: 73.11% and 91.80% and 83.87%; OD values (printed under head μM NO release) [1, 5]: 0.135 and 0.161 and 0.195; μM NO release [1, 5]: 1.620 µM and 3.188 µM and 5.313 µM
5 | Oc1ccc(Cc2ccc(O)c(O)c2)cc1O [Compound 3-2] | – | – | – | – | 28.11% and 32.65% and 27.48% | 0.593 µM and 0.627 µM and 0.623 µM | 29.41 | –
6 | Cc1nc(-c2ccc(O)c(O)c2)cc(-c2ccc(O)c(O)c2)c1C#N [Compound 8, 4,6-bis(3,4-dihydroxyphenyl)-3-cyano-2-methylpyridine] | 92 | 25.265 | 8.03% and 2.30% and 9.14% | 6.49 | – | – | – | –
7 | O=C(NCc1ccc(O)c(O)c1)C(=Cc1ccc(O)c(O)c1)NC(=O)c1ccc(O)c(O)c1 [Compound 21-2] | – | – | – | – | −25.92% and −23.45% and −20.16% | 0.924 µM and 0.904 µM and 0.939 µM | −23.18 | –
8 | O=C(c1ccc(O)c(O)c1)C(O)c1ccc(O)c(O)c1 (centres unmarked) [Compound 1, 3,4,3′,4′-tetrahydroxybenzoin] | 18 | 22.038 | 20.29% and 18.62% | 18.4 | −16.55% and −17.04% and −18.19% | – | – | inhibition at 50 µM ([4]; Microglia, 24 h, 50 uM compound, TNF-α release, 10 ug LPS and 10 ng IFNγ, 24 hours, read-out: Avg % Inhibition): -17.3%; inhibition at 50 µM [3, 6]: 16.4%
9 | Oc1ccc(CN2CCN(Cc3ccc(O)c(O)c3)CC2)cc1O [Compound 9, 1,4-bis(3,4-dihydroxybenzyl)piperazine] | 3 | 26.299 | −0.57% (2×) and 9.14% | 2.66 | – | – | – | –
10 | Oc1ccc(CCc2ccc(O)c(O)c2)cc1O [Compound 4-3] | – | – | – | – | 88.39% and 91.14% and 90.14% | 0.177 µM and 0.185 µM and 0.199 µM | 89.89 | inhibition of TNF-α release ([4]; 50 μM for 1 hour, then 10 μg/ml LPS + 10 ng/ml IFNγ for 24 hours): 89%

Reference: patent US20070208087A1, “Compounds, compositions and methods for the treatment of inflammatory diseases” (priority 2001, published 2007)
